Data published in patent publication US12077503B2, “Substituted cyclic amides and their use as herbicides” (FMC CORPORATION, priority 2015, dated 2024).

Key:
Assay type in all cases: in vivo
[1] = system: giant foxtail (Setaria faberii); assay: Test A postemergence
Summary of the method: (§1)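 Visual injury, scored on a 0–100 scale relative to untreated controls, was recorded about 10 d after application. Treatments were a preemergence soil spray over planted seeds or a postemergence spray on plants at the one- to two-leaf stage, 2 to 10 cm tall, all in loam soil–sand blend in the greenhouse.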

[2] = system: ragweed (common ragweed, Ambrosia elatior); assay: Test A postemergence
Summary of the method: as §1

[3] = system: barnyardgrass (Echinochloa crus-galli); assay: Test A postemergence
Summary of the method: as §1

[4] = system: pigweed (Amaranthus retroflexus); assay: Test A postemergence
Summary of the method: as §1

Kochia (Kochia scoparia) [5] = assay: Test A postemergence
Summary of the method: as §1

[6] = system: ryegrass, Italian (Italian ryegrass, Lolium multiflorum); assay: Test A postemergence
Summary of the method: as §1

[7] = system: blackgrass (Alopecurus myosuroides); assay: Test A postemergence
Summary of the method: as §1

corn (Zea mays) = assay: Test A postemergence
Summary of the method: as §1

[8] = system: wheat (Triticum aestivum); assay: Test A postemergence
Summary of the method: as §1

[9] = system: Galium (catchweed bedstraw, Galium aparine); assay: Test A postemergence
Summary of the method: as §1

[10] = system: barnyardgrass (Echinochloa crus-galli); assay: Test B flooded paddy test; conditions: Flood, 250 g ai/ha; 0 to 100 scale where 0 is no effect and 100 is complete control; 13 to 15 d
Summary of the method: (§2)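 Visual ratings (0 none to 100 complete control) are relative to untreated plants, taken 13–15 d after treatment in a greenhouse. Test material went straight into floodwater standing 3 cm above the soil, kept constant, on plants at the 2-leaf stage.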

[11] = system: sedge, umbrella (small-flower umbrella sedge, Cyperus difformis); assay: Test B flooded paddy test; conditions: Flood, 250 g ai/ha; 0 to 100 scale where 0 is no effect and 100 is complete control; 13 to 15 d
Summary of the method: as §2

[12] = system: ducksalad (Heteranthera limosa); assay: Test B flooded paddy test; conditions: Flood, 250 g ai/ha; 0 to 100 scale where 0 is no effect and 100 is complete control; 13 to 15 d
Summary of the method: as §2

rice (Oryra sativa) = assay: Test B flooded paddy test; conditions: Flood, 250 g ai/ha; 0 to 100 scale where 0 is no effect and 100 is complete control; 13 to 15 d
Summary of the method: as §2

[13] = system: barnyardgrass (Echinochloa crus-galli); assay: Test C flooded paddy test; conditions: Flood; for Plant response rating (scale of 0 to 100), Barnyardgrass: 0 is no effect, 100 is complete control
Description: (§3) Plant species in the flooded paddy test consisted of rice (Oryza sativa), sedge, umbrella (small-flower umbrella sedge, Cyperus difformis), ducksalad (Heteranthera limosa), and barnyardgrass (Echinochloa crus-galli) grown to the 2-leaf stage for testing. At time of treatment, test pots were flooded to 3 cm above the soil surface, treated by application of test compounds directly to the paddy water, and then maintained at that water depth for the duration of the test. Treated plants and controls were maintained in a greenhouse for 13 to 15 d, after which time all species were compared to controls and visually evaluated. Plant response ratings, summarized in Table C, are based on a scale of 0 to 100 where 0 is no effect and 100 is complete control. A dash (-) response means no test result.

[14] = system: sedge, umbrella (small-flower umbrella sedge, Cyperus difformis); assay: Test C flooded paddy test; conditions: Flood; for Plant response rating (scale of 0 to 100), Sedge, Umbrella: 0 is no effect, 100 is complete control
Description: as §3

[15] = system: ducksalad (Heteranthera limosa); assay: Test C flooded paddy test; conditions: Flood; for Plant response rating (scale of 0 to 100), Ducksalad: 0 is no effect, 100 is complete control
Description: as §3

rice (Oryza sativa) = assay: Test C flooded paddy test; conditions: Flood; for Plant response rating (scale of 0 to 100), Rice: 0 is no effect, 100 is complete control
Description: as §3

[16] = system: giant foxtail (Setaria faberii); assay: Test A preemergence
Summary of the method: as §1

[17] = system: ragweed (common ragweed, Ambrosia elatior); assay: Test A preemergence
Summary of the method: as §1

[18] = system: barnyardgrass (Echinochloa crus-galli); assay: Test A preemergence
Summary of the method: as §1

[19] = system: pigweed (Amaranthus retroflexus); assay: Test A preemergence
Kochia (Kochia scoparia) [20] = assay: Test A preemergence
Summary of the method: as §1

[21] = system: ryegrass, Italian (Italian ryegrass, Lolium multiflorum); assay: Test A preemergence
Summary of the method: as §1

[22] = 125 g ai/ha, postemergence, visual rating after approx. 10 d, 0 to 100 scale (0 no effect, 100 complete control)
[23] = 500 g ai/ha, postemergence, visual injury, 0 to 100 scale (0 no effect, 100 complete control), approx. 10 d
[24] = 31 g ai/ha, scale 0 to 100 (0 no effect, 100 complete control), 13 to 15 d
[25] = 125 g ai/ha, Preemergence, visual injury after approximately 10 d, 0 to 100 scale where 0 is no effect and 100 is complete control
[26] = 500 g ai/ha, preemergence, 0 to 100 scale, 0 = no effect, 100 = complete control
[27] = Postemergence, 500 g ai/ha, 0 to 100 scale where 0 is no effect and 100 is complete control
[28] = Preemergence, 500 g ai/ha, visual injury approx. 10 d

For `CC(C)Oc1cccc(C2CN(C)C(=O)C2C(=O)Nc2ccccc2F)c1` (centres unmarked) [Compound 650], the “Plant response rating, Foxtail, Giant” value [1, 22] was 90, the “Plant response rating, Foxtail, Giant” value [1, 23] was 90 and the “Plant response rating, Ragweed” value [2, 22] was 0. For the same compound, the “Plant response rating, Ragweed” value [2, 23] was 30, the “Plant response rating, Barnyardgrass” value [3, 22] was 90 and the “Plant response rating, Barnyardgrass” value [3, 23] was 90. The “Plant response rating, Pigweed” value [4, 22] was 0, the “Plant response rating, Pigweed” value [4, 23] was 0 and the “Plant response rating, Kochia” value (Kochia (Kochia scoparia) [5]; [22]) was 0. The “Plant response rating, Kochia” value (Kochia (Kochia scoparia) [5]; [23]) was 40, the “Plant response rating, Ryegrass, Italian” value [6, 22] was 60 and the “Plant response rating, Ryegrass, Italian” value [6, 23] was 70. The “Plant response rating, Blackgrass” value [7, 22] was 50, the “Plant response rating, Blackgrass” value [7, 23] was 50 and the “Plant response rating, Corn” value (corn (Zea mays); [22]) was 40. The “Plant response rating, Corn” value (corn (Zea mays); [23]) was 90, the “Plant response rating, Wheat” value [8, 22] was 30 and the “Plant response rating, Wheat” value [8, 23] was 70. For the same compound, the “Plant response rating, Galium” value [9, 22] was 50, the “Plant response rating, Galium” value [9, 23] was 70 and the “Plant response rating, Barnyardgrass” value [10] was 80. For the same compound, the “Plant response rating, Sedge, Umbrella” value [11] was 0, the “Plant response rating, Ducksalad” value [12] was 100 and the “Plant response rating, Rice” value (rice (Oryra sativa)) was 0. For the same compound, the “Plant response rating, Barnyardgrass” value [13, 24] was 20, the “Plant response rating (scale of 0 to 100), Barnyardgrass” value ([13]; 62 g ai/ha) was 20 and the “Plant response rating (scale of 0 to 100), Barnyardgrass” value ([13]; 125 g ai/ha) was 60. For the same compound, the “Plant response rating (scale of 0 to 100), Barnyardgrass” value ([13]; 250 g ai/ha) was 75, the “Plant response rating, Sedge, Umbrella” value [14, 24] was 0 and the “Plant response rating (scale of 0 to 100), Sedge, Umbrella” value ([14]; 62 g ai/ha) was 0. For the same compound, the “Plant response rating (scale of 0 to 100), Sedge, Umbrella” value ([14]; 125 g ai/ha) was 0, the “Plant response rating (scale of 0 to 100), Sedge, Umbrella” value ([14]; 250 g ai/ha) was 0 and the “Plant response rating, Ducksalad” value [15, 24] was 60. For the same compound, the “Plant response rating (scale of 0 to 100), Ducksalad” value ([15]; 62 g ai/ha) was 70, the “Plant response rating (scale of 0 to 100), Ducksalad” value ([15]; 125 g ai/ha) was 90 and the “Plant response rating (scale of 0 to 100), Ducksalad” value ([15]; 250 g ai/ha) was 95. The “Plant response rating, Rice” value (rice (Oryza sativa); [24]) was 0, the “Plant response rating (scale of 0 to 100), Rice” value (rice (Oryza sativa); 62 g ai/ha) was 0 and the “Plant response rating (scale of 0 to 100), Rice” value (rice (Oryza sativa); 125 g ai/ha) was 0. For the same compound, the “Plant response rating (scale of 0 to 100), Rice” value (rice (Oryza sativa); 250 g ai/ha) was 0, the “Plant response rating, Foxtail, Giant” value [16, 25] was 100 and the “Plant response rating, Foxtail, Giant” value [16, 26] was 100. For the same compound, the “Plant response rating, Ragweed” value [17, 25] was 0, the “Plant response rating, Ragweed” value [17, 26] was 80 and the “Plant response rating, Barnyardgrass” value [18, 25] was 100. For the same compound, the “Plant response rating, Barnyardgrass” value [18, 26] was 100, the “Plant response rating, Pigweed” value [19, 25] was 50 and the “Plant response rating, Pigweed” value [19, 26] was 90. The “Plant response rating, Kochia” value (Kochia (Kochia scoparia) [20]; [25]) was 30, the “Plant response rating, Kochia” value (Kochia (Kochia scoparia) [20]; [26]) was 70 and the “Plant response rating, Ryegrass, Italian” value [21, 25] was 40. For the same compound, the “Plant response rating, Ryegrass, Italian” value [21, 26] was 90.
With `C=CCN1CC(c2cccc(C(F)(F)F)c2)C(C(=O)Nc2cccc(F)c2F)C1=O` (centres unmarked) [Compound 606] the “Plant response rating, Foxtail, Giant” value [1, 22] was 70, the “Plant response rating, Foxtail, Giant” value [1, 27] was 90 and the “Plant response rating, Ragweed” value [2, 22] was 0. The “Plant response rating, Ragweed” value [2, 27] was 0, the “Plant response rating, Barnyardgrass” value [3, 22] was 50 and the “Plant response rating, Barnyardgrass” value [3, 27] was 70. The “Plant response rating, Pigweed” value [4, 22] was 50, the “Plant response rating, Pigweed” value [4, 27] was 70 and the “Plant response rating, Kochia” value (Kochia (Kochia scoparia) [5]; [22]) was 0. For the same compound, the “Plant response rating, Kochia” value (Kochia (Kochia scoparia) [5]; [27]) was 0, the “Plant response rating, Ryegrass, Italian” value [6, 22] was 0 and the “Plant response rating, Ryegrass, Italian” value [6, 27] was 0. For the same compound, the “Plant response rating, Blackgrass” value [7, 22] was 0, the “Plant response rating, Blackgrass” value [7, 27] was 40 and the “Plant response rating, Corn” value (corn (Zea mays); [22]) was 0. The “Plant response rating, Corn” value (corn (Zea mays); [27]) was 0, the “Plant response rating, Wheat” value [8, 22] was 0 and the “Plant response rating, Wheat” value [8, 27] was 0. For the same compound, the “Plant response rating, Galium” value [9, 22] was 60, the “Plant response rating, Galium” value [9, 27] was 70 and the “Plant response rating, Barnyardgrass” value [10] was 50. For the same compound, the “Plant response rating, Sedge, Umbrella” value [11] was 40, the “Plant response rating, Ducksalad” value [12] was 0 and the “Plant response rating, Rice” value (rice (Oryra sativa)) was 0. For the same compound, the “Plant response rating (scale of 0 to 100), Barnyardgrass” value ([13]; 31 g ai/ha) was 0, the “Plant response rating (scale of 0 to 100), Barnyardgrass” value ([13]; 62 g ai/ha) was 0 and the “Plant response rating (scale of 0 to 100), Barnyardgrass” value ([13]; 125 g ai/ha) was 20. For the same compound, the “Plant response rating (scale of 0 to 100), Barnyardgrass” value ([13]; 250 g ai/ha) was 40, the “Plant response rating (scale of 0 to 100), Sedge, Umbrella” value ([14]; 31 g ai/ha) was 0 and the “Plant response rating (scale of 0 to 100), Sedge, Umbrella” value ([14]; 62 g ai/ha) was 0. The “Plant response rating (scale of 0 to 100), Sedge, Umbrella” value ([14]; 125 g ai/ha) was 0, the “Plant response rating (scale of 0 to 100), Sedge, Umbrella” value ([14]; 250 g ai/ha) was 0 and the “Plant response rating (scale of 0 to 100), Ducksalad” value ([15]; 31 g ai/ha) was 0. The “Plant response rating (scale of 0 to 100), Ducksalad” value ([15]; 62 g ai/ha) was 0, the “Plant response rating (scale of 0 to 100), Ducksalad” value ([15]; 125 g ai/ha) was 50 and the “Plant response rating (scale of 0 to 100), Ducksalad” value ([15]; 250 g ai/ha) was 70. The “Plant response rating (scale of 0 to 100), Rice” value (rice (Oryza sativa); 31 g ai/ha) was 0, the “Plant response rating (scale of 0 to 100), Rice” value (rice (Oryza sativa); 62 g ai/ha) was 0 and the “Plant response rating (scale of 0 to 100), Rice” value (rice (Oryza sativa); 125 g ai/ha) was 0. The “Plant response rating (scale of 0 to 100), Rice” value (rice (Oryza sativa); 250 g ai/ha) was 0, the “Plant response rating, Foxtail, Giant” value [16, 25] was 80 and the “Foxtail, Giant plant response rating (0 to 100 scale, 0 is no effect, 100 is complete control)” value [16, 28] was 90. For the same compound, the “Plant response rating, Ragweed” value [17, 25] was 0, the “Ragweed plant response rating (0 to 100 scale, 0 is no effect, 100 is complete control)” value [17, 28] was 0 and the “Plant response rating, Barnyardgrass” value [18, 25] was 50. For the same compound, the “Barnyardgrass plant response rating (0 to 100 scale, 0 is no effect, 100 is complete control)” value [18, 28] was 80, the “Plant response rating, Pigweed” value [19, 25] was 0 and the “Pigweed plant response rating (0 to 100 scale, 0 is no effect, 100 is complete control)” value [19, 28] was 0. For the same compound, the “Plant response rating, Kochia” value (Kochia (Kochia scoparia) [20]; [25]) was 0, the “Kochia plant response rating (0 to 100 scale, 0 is no effect, 100 is complete control)” value (Kochia (Kochia scoparia) [20]; [28]) was 0 and the “Plant response rating, Ryegrass, Italian” value [21, 25] was 0. The “Ryegrass, Italian plant response rating (0 to 100 scale, 0 is no effect, 100 is complete control)” value [21, 28] was 0.
